{"source": "patent US6362217B1", "about": "“Taxane anticancer agents” (Bristol-Myers Squibb Company, priority 2000, dated 2002)", "key": {"[1]": {"system": "HCT-116 human colon carcinoma cells", "test": "Cytotoxicity, XTT assay", "assay_type": "cell-based", "conditions": "XTT procedure, 72 hours incubation", "experimental": "(§1) Cytoxicity was assessed in HCT-116 human colon carcinoma cells by either using an XTT or MTS procedure.\nCytotoxicity was assessed in HCT-116 human colon carcinoma cells by XTT (2,3-bis(2-methoxy-4-nitro-5-sulfpphenyl)-5-[(phenylamino)carbonyl]2H-tetrazolium hydroxide) assay as reported in D. A. Scudiero, et al., “Evaluation of soluble tetrazolium/formazan assay for cell growth and drug sensitivity in culture using human and other tumor cell lines,” Cancer Res. 48:4827-4833, 1988. Cells were plated at 4000 cells/well in 96 well microtiter plates and 24 hours later drugs were added and serial diluted. The cells were incubated at 37° C. for 72 hours at which time the tetrazolium dye, XTT, was added. A dehydrogenase enzyme in live cells reduces the XTT to a form that absorbs light at 450 nm which can be quantitated spectrophotometrically. The greater the absorbance, the greater the number of live cells. The results are expressed as an IC50, which is the drug concentration required to inhibit cell proliferation (i.e., absorbance at 450 nm) to 50% of that of untreated control cells."}, "[2]": {"system": "HCT-116 human colon carcinoma cells", "test": "Cytotoxicity, MTS assay", "assay_type": "cell-based", "conditions": "MTS procedure, 72 hours incubation", "experimental": "as §1\nCytoxicity was assessed in HCT-116 human colon carcinoma cells by MTS (3-(4,5-dimethylthiazol-2-yl)-5-(3-carboxymethoxyphenyl)-2-(4-sulphenyl)-2H-tetrazolium, inner salt) assay as reported in T. L. Riss, et. al., “Comparison of MTT, XTT, and a novel tetrazolium compound MTS for in vitro proliferation and chemosensitivity assays.” Mol. Biol. Cell 3 (Suppl.):184a, 1992. Cells were plated at 4,000 cell/well in 96 well microtiter plates and 24 hours later drugs were added and serial diluted. The cells were incubated at 37° form 72 hours at which time the tetrazolium dye, MTS at 333 μg/ml (final concentration), in combination with the electron coupling agent phenazine methosulfate at 25 μM (final concentration) was added. A dehydrogenase enzyme in live cells reduces the MTS to a form that absorbs light at […] which can be quantitated spectrophotometrically. The greater the absorbance the greater the number of live cells. The results are expressed as an IC50, which is the drug concentration required to inhibit cell proliferation (i.e. absorbance at 450 nm) to 50% of that of untreated control cells. The IC50 values for compounds evaluated in this assay are evaluated in Table I."}, "[3]": {"system": "murine lung carcinoma, M109", "test": "In vivo antitumor testing, sc M109 tumor model", "set-up": "species or system mice", "conditions": "for iv activity compared to concomitantly evaluated iv paclitaxel: scM109 tumors", "description": "(§2) Animals. Conventional or athymic (“nude”) mice, and nude rats, were implanted subcutaneously (sc) with tumor brei or fragments. Murine tumor were implanted in conventional mice, human tumors were implanted into nude mice or rats.\n(§3) Tumors. A variety of tumors have been utilized but not all of them have necessarily been used to evaluate each and every taxane. The tumors utilized most often included the murine lung carcinoma, M109, the murine mammary carcinoma, MAM 16/C, the human ovarian carcinoma. A2780, the human colon tumors, HCT-116 and HCT-116/pk.\n(§4) Treatments are initiated at differing times post-implantation depending upon the desired stringency of the test system; in general, the greater the delay post-tumor implantation, the larger the tumors at the start of therapy. Typically, treatments were begun in the M109 tumor model on Day 4 post-tumor implant, Day 7 in the MAM 16/C tumor model, and when tumors were between 100 and 500 mg in size (typically Day 7 to Day 12 post-tumor implant) for each of the human tumor xenograft models (e.g., A2780, HCT-116 and HCT-116/pk). Group sizes were typically 8 per treatment and control groups in mouse experiments and 7 per treatment and control groups in rat experiments.\nTreatments for taxanes administered orally (po) were done by gavage using a vehicle consisting of 10% ethanol +10% Cremophor EL+80% water. The volume of liquid administered was 0.01 ml per gram of body weight for mice, and 0.005 ml per gram of body weight for rats. A typical mouse experiment would involve the evaluation of each test compound at three different dose levels, but only one to three test groups per compound were included in rat experiments. In every experiment, intravenously (iv) administered paclitaxel was included as a reference drug.\n(§5) Paclitaxel was administered iv on treatment schedules and doses established from experience as being optimal, or near optimal, for the particular tumor, tumor staging, and host animal under study. It was given once daily, for five consecutive daily treatments (i.e., qd×5), when evaluated in the M109 and MAM 16/C tumor models, once daily every other day for five treatments (i.e., q2d×5) when administered to mice bearing human tumors, and once daily every other or every fourth day for five or three treatments, respectively (i.e., q2d×5 or q4d×3), to rats.\n(§6) Orally administered taxanes were evaluated on the same treatment schedules just described for iv administered paclitaxel, plus other treatment schedules such as daily for nine days, or every eight days for two treatments.\nAntitumor activity was assessed by determining the size of tumors in all treated and control experimental animals over time. Each animal was individually identified and the growth of the tumor implanted into each animal was measured once or twice weekly using a calipers. The difference in median time for tumors in treated (T) and control (C) groups to reach a predetermined size (e.g., 500 or 1,000 milligrams) was calculated, and assessments of absolute and relative antitumor effects (e.g., between compounds) were made on the basis of the delays in time to reach predetermined tumor target sizes. Animals with tumors of 35 mg or less at the termination of an experiment were termed “cures”. Experiments were terminated typically after a period of time had elapsed post-treatment that was at least 10 times the tumor volume doubling time (TVDT) of the median tumor growth in control animals as assessed prior to their reaching the predetermined tumor target size in each experiment. Activity in a test group was defined as having caused a delay in tumor growth (median time to reach tumor target size) relative to the concomitant control tumor growth (i.e. T-C) of 3.32 times the TVDT. Activity was expressed in log cell kill which was equal to (T-C)/(TVDT×3.32). Toxicity was determined by measuring the average body weight of all animals in an experiment prior to, and soon after, any treatments in the experiment. […]"}, "[4]": {"system": "human ovarian carcinoma A2780", "test": "In vivo antitumor testing, A2780 xenograft model", "set-up": "species or system nude mice", "description": "as §2, §3, §4\nTreatments for taxanes administered orally (po) were done by gavage using a vehicle consisting of 10% ethanol +10% Cremophor EL+80% water. […]\nas §5, §6\nAntitumor activity was assessed by determining the size of tumors in all treated and control experimental animals over time. Each animal was individually identified and the growth of the tumor implanted into each animal was measured once or twice weekly using a calipers. The difference in median time for tumors in treated (T) and control (C) groups to reach a predetermined size (e.g., 500 or 1,000 milligrams) was calculated, and assessments of absolute and relative antitumor effects (e.g., between compounds) were made on the basis of the delays in time to reach predetermined tumor target sizes. […]"}, "[5]": {"conditions": "human or animal models, prior art; cited from earlier work"}}, "note": "Marks after values point to notes of the source that are not given here.", "data": [{"compound": "CC(=O)OC12COC1CCC1(C)C(=O)C(OC(=O)C=Cc3ccccc3)C3=C(C)C(OC(=O)C(O)C(NC(=O)c4ccccc4)c4ccccc4)CC(O)(C(OC(=O)c4ccccc4)C12)C3(C)C", "note": "(stereo not drawn) [Ig, 10-Cinnamoyl-7-deoxy paclitaxel]", "values": [{"measurement": "IC50", "setting": "[1]", "value": 28.4, "unit": "nM"}]}, {"compound": "7-deoxy-3′-(4-hydroxyphenyl)-3′N-t-butoxycarbonyl paclitaxel [Compound Ia]", "values": [{"measurement": "IC50", "setting": "[2]", "value": 4.3, "unit": "nM"}, {"measurement": "IV Activity in LCK", "setting": "[3]; iv, 13 mg/kg per injection, M109, log cell kill = (T-C)/(TVDT×3.32)", "value": 1.4, "unit": "LCK"}, {"measurement": "iv activity compared to concomitantly evaluated iv paclitaxel", "setting": "[3]; iv", "value": "surprising activity"}]}, {"compound": "CC(=O)OC12COC1CCC1(C)C(=O)C(OC(=O)COc3ccccc3)C3=C(C)C(OC(=O)C(O)C(NC(=O)c4ccccc4)c4ccccc4)CC(O)(C(OC(=O)c4ccccc4)C12)C3(C)C", "note": "(stereo not drawn) [Ie, 10-Phenoxyacetyl-7-deoxy paclitaxel]", "values": [{"measurement": "IC50", "setting": "[1]", "value": 8.09, "unit": "nM"}]}, {"compound": "CC(=O)OC12COC1CCC1(C)C(=O)C(OC(=O)N3CCOCC3)C3=C(C)C(OC(=O)C(O)C(NC(=O)c4ccccc4)c4ccccc4)CC(O)(C(OC(=O)c4ccccc4)C12)C3(C)C", "note": "(stereo not drawn) [Ic, 10-Morpholinoyl-7-deoxy paclitaxel]", "values": [{"measurement": "IC50", "setting": "[1]", "value": 1.49, "unit": "nM"}]}, {"compound": "10-(2-amino)benzoyl-7-deoxy paclitaxel [Ih]", "values": [{"measurement": "IC50", "setting": "[1]", "value": 102, "unit": "nM"}]}, {"compound": "CC(=O)O[C@H]1C(=O)[C@@]2(C)[C@H]([C@H](OC(=O)c3ccccc3)[C@]3(O)C[C@H](OC(=O)[C@H](O)[C@@H](NC(=O)c4ccccc4)c4ccccc4)C(C)=C1C3(C)C)[C@]1(OC(C)=O)CO[C@@H]1C[C@@H]2O", "note": "[Paclitaxel, paclitaxel, reference compound]", "values": [{"measurement": "Optimal Activity of iv Paclitaxel", "setting": "[3]; iv, optimal dose and schedule (qd×5), M109, concomitantly evaluated", "value": 0.7, "unit": "LCK"}, {"measurement": "Optimal Activity of iv Paclitaxel", "setting": "[4]; iv, optimal dose and schedule (q2d×5), A2780, concomitantly evaluated", "value": 5.9, "unit": "LCK"}, {"measurement": "oral activity", "setting": "[5]", "value": "no oral activity"}]}, {"compound": "CCCCCCCC(=O)OC1C(=O)C2(C)CCC3OCC3(OC(C)=O)C2C(OC(=O)c2ccccc2)C2(O)CC(OC(=O)C(O)C(NC(=O)c3ccccc3)c3ccccc3)C(C)=C1C2(C)C", "note": "(stereo not drawn) [Id, 10-Octanoyl-7-deoxy paclitaxel]", "values": [{"measurement": "IC50", "setting": "[1]", "value": 98.2, "unit": "nM"}]}, {"compound": "3′N-(2-furoyl)-7-deoxy paclitaxel [Ib]", "values": [{"measurement": "IC50", "setting": "[2]", "value": 0.85, "unit": "nM"}, {"measurement": "IV Activity in LCK", "setting": "[3]; iv, 20 mg/kg per injection, M109", "value": 0.7, "unit": "LCK"}, {"measurement": "iv activity compared to concomitantly evaluated iv paclitaxel", "setting": "[3]; iv", "value": "equiactive to paclitaxel"}, {"measurement": "oral activity", "setting": "[3]; oral, M109 model", "value": "active orally"}, {"measurement": "PO Activity in LCK", "setting": "[3]; po, 40 mg/kg per administration, M109", "value": 0.7, "unit": "LCK"}, {"measurement": "oral activity compared to optimal iv paclitaxel", "setting": "[4]; oral, A2780 model", "value": "equallyactive if not better"}, {"measurement": "PO Activity in LCK", "setting": "[4]; po, 85 mg/kg per administration, A2780", "value": ">7", "unit": "LCK"}, {"measurement": "Cures (mice cured / tested)", "setting": "[4]; po, 85 mg/kg per administration, A2780, cure = tumor of 35 mg or less at termination", "value": "(1/8)**"}]}, {"compound": "CC(=O)O[C@@]12CO[C@@H]1C[C@H](O)[C@@]1(C)C(=O)[C@H](O)C3=C(C)[C@@H](OC(=O)[C@H](O)[C@@H](NC(=O)OC(C)(C)C)c4ccccc4)C[C@@](O)([C@@H](OC(=O)c4ccccc4)[C@H]21)C3(C)C", "note": "[TAXOTERE®, docetaxel]", "values": [{"measurement": "oral activity", "setting": "[5]", "value": "no oral activity"}]}, {"compound": "CC(=O)OC12COC1CCC1(C)C(=O)C(OC(=O)c3ccccc3[N+](=O)[O-])C3=C(C)C(OC(=O)C(O)C(NC(=O)c4ccccc4)c4ccccc4)CC(O)(C(OC(=O)c4ccccc4)C12)C3(C)C", "note": "(stereo not drawn) [If, 10-(2-Nitro)benzoyl-7-deoxy paclitaxel]", "values": [{"measurement": "IC50", "setting": "[1]", "value": 13.3, "unit": "nM"}]}]}
